From US20190388425A1, “SUBSTITUTED IMIDAZOPYRIDINPYRIMIDINES” (Bayer Pharma Aktiengesellschaft, priority 2017, published 2019)

Biological target: T1, human full-length MKNK1 (Homo sapiens, UniProt Q9BUB5, T385D)
T1 construct: GST (N); purchased Carna Biosciences 02-145; host or cells: insect cells (baculovirus expression system)
Experiment: MKNK1 kinase high ATP assay (TR-FRET)
Assay type: biochemical
Details: TR-FRET, 2 mM ATP (high ATP), 15 min preincubation with enzyme, 30 min reaction at 22° C.; read-out: MKNK1 IC50
Outline: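 Full-length human MKNK1 (T385D) preincubated 15 min at 22 °C with compound in HEPES pH 7.5/MgCl2/DTT buffer; reaction with 2 mM ATP (final) and 0.06 μM biotinylated peptide (final), 30 min at 22 °C.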

T1 sequence (Q9BUB5 1-424 isoform Q9BUB5-2 T344D): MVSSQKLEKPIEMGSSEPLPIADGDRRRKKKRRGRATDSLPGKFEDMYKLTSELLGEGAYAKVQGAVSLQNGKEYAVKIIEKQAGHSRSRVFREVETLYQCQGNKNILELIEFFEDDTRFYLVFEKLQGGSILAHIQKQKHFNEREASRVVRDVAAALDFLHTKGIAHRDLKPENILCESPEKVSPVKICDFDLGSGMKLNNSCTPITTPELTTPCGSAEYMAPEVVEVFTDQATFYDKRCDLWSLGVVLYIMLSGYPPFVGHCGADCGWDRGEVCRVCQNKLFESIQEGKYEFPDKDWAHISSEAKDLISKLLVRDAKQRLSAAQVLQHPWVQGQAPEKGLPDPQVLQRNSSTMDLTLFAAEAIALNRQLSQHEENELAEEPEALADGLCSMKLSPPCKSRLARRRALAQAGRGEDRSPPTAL

SMILES: O=C1NC2(CSC2)n2c1c(Cl)cc(Nc1ncnc3sc4c(c13)CC[C@H](C(=O)N1C[C@H]3C[C@@H]1CO3)C4)c2=O [Example 108, 8-Chloro-6-({(7S)-7-[(1R,4R)-2-oxa-5-azabicyclo[2.2.1]heptane-5-carbonyl]-5,6,7,8-tetrahydro[1]benzothieno[2,3-d]pyrimidin-4-yl}amino)-2H-spiro[imidazo[1,5-a]pyridine-3,3′-thietane]-1,5-dione]
- IC50: 0.8 nM

SMILES: CC1(C)NC(=O)c2c(Cl)cc(Nc3ncnc4sc5c(c34)CC[C@H](C(=O)O)C5)c(=O)n21 [Example 109, (7S)-4-[(8-Chloro-3,3-dimethyl-1,5-dioxo-1,2,3,5-tetrahydroimidazo[1,5-a]pyridin-6-yl)amino]-5,6,7,8-tetrahydro[1]benzothieno[2,3-d]pyrimidine-7-carboxylic acid]
- IC50: 26.7 nM

SMILES: CC1(C)NC(=O)c2c(Cl)cc(Nc3ncnc4sc5c(c34)CC[C@H](C(N)=O)C5)c(=O)n21 [Example 110, (7S)-4-[(8-Chloro-3,3-dimethyl-1,5-dioxo-1,2,3,5-tetrahydroimidazo[1,5-a]pyridin-6-yl)amino]-5,6,7,8-tetrahydro[1]benzothieno[2,3-d]pyrimidine-7-carboxamide]
- IC50: 1.2 nM

SMILES: CN(C)C(=O)[C@H]1CCc2c(sc3ncnc(Nc4cc(Cl)c5n(c4=O)C(C)(C)NC5=O)c23)C1 [Example 111, (7S)-4-[(8-Chloro-3,3-dimethyl-1,5-dioxo-1,2,3,5-tetrahydroimidazo[1,5-a]pyridin-6-yl)amino]-N,N-dimethyl-5,6,7,8-tetrahydro[1]benzothieno[2,3-d]pyrimidine-7-carboxamide]
- IC50: 0.3 nM

SMILES: CC1(C)NC(=O)c2c(Cl)cc(Nc3ncnc4sc5c(c34)CC[C@H](C(=O)N3CCC3)C5)c(=O)n21 [Example 112, 6-{[(7S)-7-(Azetidine-1-carbonyl)-5,6,7,8-tetrahydro[1]benzothieno[2,3-d]pyrimidin-4-yl]amino}-8-chloro-3,3-dimethyl-2,3-dihydroimidazo[1,5-a]pyridine-1,5-dione]
- IC50: 0.2 nM

SMILES: CC1(C)NC(=O)c2c(Cl)cc(Nc3ncnc4sc5c(c34)CC[C@H](C(=O)N3CC(C#N)C3)C5)c(=O)n21 [Example 113, 1-{(7S)-4-[(8-Chloro-3,3-dimethyl-1,5-dioxo-1,2,3,5-tetrahydroimidazo[1,5-a]pyridin-6-yl)amino]-5,6,7,8-tetrahydro[1]benzothieno[2,3-d]pyrimidine-7-carbonyl}azetidine-3-carbonitrile]
- IC50: 0.2 nM

SMILES: CN(C)[C@H]1CCN(C(=O)[C@H]2CCc3c(sc4ncnc(Nc5cc(Cl)c6n(c5=O)C(C)(C)NC6=O)c34)C2)C1 [Example 114, 8-Chloro-6-({(7S)-7-[(3S)-3-(dimethylamino)pyrrolidine-1-carbonyl]-5,6,7,8-tetrahydro[1]benzothieno[2,3-d]pyrimidin-4-yl}amino)-3,3-dimethyl-2,3-dihydroimidazo[1,5-a]pyridine-1,5-dione]
- IC50: < 0.1 nM

SMILES: C[C@@H]1CN(C(=O)[C@H]2CCc3c(sc4ncnc(Nc5cc(Cl)c6n(c5=O)C(C)(C)NC6=O)c34)C2)CCN1C [Example 115, 8-Chloro-6-({(7S)-7-[(3R)-3,4-dimethylpiperazine-1-carbonyl]-5,6,7,8-tetrahydro[1]benzothieno[2,3-d]pyrimidin-4-yl}amino)-3,3-dimethyl-2,3-dihydroimidazo[1,5-a]pyridine-1,5-dione]
- IC50: 0.2 nM

SMILES: CC1(C)NC(=O)c2c(Cl)cc(Nc3ncnc4sc5c(c34)CC[C@H](C(=O)N3C[C@H]4C[C@@H]3CO4)C5)c(=O)n21 [Example 116, 8-Chloro-3,3-dimethyl-6-({(7S)-7-[(1R,4R)-2-oxa-5-azabicyclo[2.2.1]heptane-5-carbonyl]-5,6,7,8-tetrahydro[1]benzothieno[2,3-d]pyrimidin-4-yl}amino)-2,3-dihydroimidazo[1,5-a]pyridine-1,5-dione]
- IC50: 0.3 nM

SMILES: C[C@@H]1COCCN1C(=O)[C@H]1CCc2c(sc3ncnc(Nc4cc(Cl)c5n(c4=O)C(C)(C)NC5=O)c23)C1 [Example 117, 8-chloro-3,3-dimethyl-6-({(7S)-7-[(3R)-3-methylmorpholine-4-carbonyl]-5,6,7,8-tetrahydro[1]benzothieno[2,3-d]pyrimidin-4-yl}amino)-2,3-dihydroimidazo[1,5-a]pyridine-1,5-dione]
- IC50: 0.4 nM

SMILES: O=C1NC2(CCC2)n2c1c(Cl)cc(Nc1ncnc3sc4c(c13)CC[C@H](C(=O)N1C[C@H]3C[C@@H]1CO3)C4)c2=O [Example 118, 8′-chloro-6′-({(7S)-7-[(1R,4R)-2-oxa-5-azabicyclo[2.2.1]heptan-5-ylcarbonyl]-5,6,7,8-tetrahydro[1]benzothieno[2,3-d]pyrimidin-4-yl}amino)-2′H-spiro[cyclobutane-1,3′-imidazo[1,5-a]pyridine]-1′,5′-dione]
- IC50: 0.4 nM

SMILES: NC(=O)[C@H]1CCc2c(sc3ncnc(Nc4cc(Cl)c5n(c4=O)C4(CSC4)NC5=O)c23)C1 [Example 119, (7S)-4-[(8-chloro-1,5-dioxo-1,5-dihydro-2H-spiro[imidazo[1,5-a]pyridine-3,3′-thietan]-6-yl)amino]-5,6,7,8-tetrahydro[1]benzothieno[2,3-d]pyrimidine-7-carboxamide]
- IC50: 0.9 nM
